Measured values: EPA's ToxValDB 9.5 (doi:10.2903/j.efsa.2010.1833)
≈ marks a conversion by molar mass, not a printed value.

Key:
[1] = system: Pleurozium sp.; settings: acute; duration: 72 hours
[2] = system: Lepomis macrochirus; settings: acute; duration: 96 hours; mortality
[3] = system: Colinus virginianus
[4] = system: Rattus norvegicus; settings: for LD50: acute, mortality
[5] = system: Aleochara bilineata; settings: chronic/long-term; duration: 77 days; reproduction
[6] = system: Landoltia sp.; settings: chronic/long-term; duration: 14 days; other
[7] = system: Coturnix japonica; settings: acute; oral; diet; mortality
[8] = system: Anas platyrhynchos
[9] = system: Tagia sp.; settings: acute; duration: 14 days; mortality
[10] = system: Folsomia candida; settings: chronic/long-term; duration: 28 days; mortality
[11] = system: Canidae; settings: subchronic; duration: 90 days; oral; gavage; Dog Other; body weight
[12] = system: Mus musculus; settings: acute, oral, mortality

Q: How did the NOEC [1] turn out when `CN1CSC(=S)N(C)C1` [Dazomet] was run?
A: Its NOEC is 0.056 mg/L.

Q: And the LC50 [2]?
A: The LC50 was 0.3 µg/mL (≈ 1.85 µM).

Q: And the LC50 ([3]; acute, oral, diet, mortality)?
A: The LC50 was 197 mg/kg-day.

Q: What about the LD50 ([3]; acute, oral, mortality) of the same molecule?
A: Its LD50 is greater than 415 mg/kg-day.

Q: What about the NOEL ([3]; reproduction developmental) of the same molecule?
A: The NOEL was 10.6 mg/kg-day.

Q: And the LD50 ([4]; oral, F)?
A: Its LD50 is 415 mg/kg-day.

Q: What about the LD50 ([4]; oral, M) of the same molecule?
A: The LD50 was 596 mg/kg-day.

Q: What about the NOAEL ([4]; chronic, duration: 2 years, oral, diet, hematological) of the same molecule?
A: The NOAEL was 0.9 mg/kg-day.

Q: What about the NOAEL ([4]; developmental, development) of the same molecule?
A: The NOAEL was 3 mg/kg-day.

Q: And the NOAEL ([4]; reproduction developmental, reproduction)?
A: The NOAEL was 18 mg/kg-day.

Q: What about the NOAEL ([4]; subchronic, duration: 90 days, oral, diet, organ weight) of the same molecule?
A: Its NOAEL is 1.5 mg/kg-day.

Q: And the LEL [5]?
A: Its LEL is 485000 g/ha.

Q: What about the NOEC [6] of the same molecule?
A: The NOEC was 0.306 mg/L.

Q: And the LC50 [7]?
A: Its LC50 is greater than 1220 mg/kg-day.

Q: What about the NOEL ([8]; reproductive) of the same molecule?
A: Its NOEL is 16.7 mg/kg-day.

Q: What about the LC50 ([8]; short-term, oral, feed, mortality) of the same molecule?
A: Its LC50 is greater than 341 mg/kg-day.

Q: And the LC50 [9]?
A: Its LC50 is 6.5 mg/kg.

Q: And the LEL [10]?
A: The LEL was 485000 g/ha.

Q: How did the NOAEL [11] turn out when `CN=C=S` [Methyl isothiocyanate] was run?
A: Its NOAEL is 0.4 mg/kg-day.

Q: What about the NOAEL ([4]; reproduction developmental, body weight) of the same molecule?
A: Its NOAEL is 3 mg/kg-day.

Q: And the LD50 ([12]; F)?
A: The LD50 was 100 mg/kg-day.

Q: And the LD50 ([12]; M)?
A: Its LD50 is 120 mg/kg-day.
